Assays:
[1] = target: T1, Alpha-1B adrenergic receptor (Homo sapiens, UniProt P35368); experiment: (§1) PDSP Secondary Binding target: ADRA1B - Compounds are tested at 10 uM concentration, plate are incubated at room temperature in the dark for 90 minutes. Reaction are stopped by vacuum filtration onto 0.3% polyethyleneimine soaked filter mats using Filtermate harvester. Scintillation cocktail is then melted onto microwave-dried filters on a hot plate and the radio activity is counted in Microbia counter.
T1 sequence (P35368 whole entry): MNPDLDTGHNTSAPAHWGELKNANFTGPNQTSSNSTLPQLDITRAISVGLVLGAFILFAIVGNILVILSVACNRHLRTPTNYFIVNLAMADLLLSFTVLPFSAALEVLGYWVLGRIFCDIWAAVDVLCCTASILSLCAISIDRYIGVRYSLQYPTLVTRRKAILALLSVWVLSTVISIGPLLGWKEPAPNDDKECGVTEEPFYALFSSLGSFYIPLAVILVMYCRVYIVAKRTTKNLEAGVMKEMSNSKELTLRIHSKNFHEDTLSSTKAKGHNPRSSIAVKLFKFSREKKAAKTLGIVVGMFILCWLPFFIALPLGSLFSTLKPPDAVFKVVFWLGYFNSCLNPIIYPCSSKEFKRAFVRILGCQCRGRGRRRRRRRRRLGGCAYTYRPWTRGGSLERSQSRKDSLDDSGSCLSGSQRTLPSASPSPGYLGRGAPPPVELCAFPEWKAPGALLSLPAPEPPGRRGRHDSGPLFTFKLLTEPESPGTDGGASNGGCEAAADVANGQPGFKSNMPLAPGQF

Mu-type opioid receptor = Mu-type opioid receptor (Homo sapiens, UniProt P35372); experiment: as §1, with “OPRM1” for “ADRA1B”
[2] = target: Sigma intracellular receptor 2 (Homo sapiens, UniProt Q5BJF2); experiment: as §1, with “TMEM97” for “ADRA1B”
[3] = target: 5-hydroxytryptamine receptor 1E (Homo sapiens, UniProt P28566); experiment: as §1, with “HTR1E” for “ADRA1B”
D(4) dopamine receptor = target: T2, D(4) dopamine receptor (Homo sapiens, UniProt P21917); experiment: as §1, with “DRD4” for “ADRA1B”
T2 sequence (P21917 whole entry): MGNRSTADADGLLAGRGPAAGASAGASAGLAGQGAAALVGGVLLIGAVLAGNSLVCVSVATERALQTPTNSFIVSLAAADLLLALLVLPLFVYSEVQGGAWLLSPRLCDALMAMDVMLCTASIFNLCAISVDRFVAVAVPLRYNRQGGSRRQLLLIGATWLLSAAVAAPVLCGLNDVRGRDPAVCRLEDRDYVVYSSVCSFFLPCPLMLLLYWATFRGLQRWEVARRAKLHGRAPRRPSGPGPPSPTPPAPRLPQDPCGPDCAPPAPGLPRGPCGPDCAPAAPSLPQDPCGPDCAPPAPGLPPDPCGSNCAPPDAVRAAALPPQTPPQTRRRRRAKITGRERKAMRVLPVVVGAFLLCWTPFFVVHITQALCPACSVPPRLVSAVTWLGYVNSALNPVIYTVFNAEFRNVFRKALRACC

[4] = target: T3, 5-hydroxytryptamine receptor 1A (Homo sapiens, UniProt P08908); experiment: as §1, with “HTR1A” for “ADRA1B”
T3 sequence (P08908 whole entry): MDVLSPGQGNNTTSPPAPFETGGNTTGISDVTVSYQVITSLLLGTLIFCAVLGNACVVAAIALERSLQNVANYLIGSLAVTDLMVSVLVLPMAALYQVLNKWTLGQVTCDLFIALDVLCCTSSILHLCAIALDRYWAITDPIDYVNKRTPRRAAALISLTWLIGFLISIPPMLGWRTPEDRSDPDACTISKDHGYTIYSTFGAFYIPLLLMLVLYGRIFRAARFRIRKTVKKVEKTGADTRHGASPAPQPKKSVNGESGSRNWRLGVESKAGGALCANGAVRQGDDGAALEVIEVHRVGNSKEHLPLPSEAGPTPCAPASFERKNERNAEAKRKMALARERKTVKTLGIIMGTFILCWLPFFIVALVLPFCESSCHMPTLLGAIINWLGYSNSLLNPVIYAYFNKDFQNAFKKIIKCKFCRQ

D(2) dopamine receptor = D(2) dopamine receptor (Homo sapiens, UniProt P14416); experiment: as §1, with “DRD2” for “ADRA1B”
Histamine H3 receptor = Histamine H3 receptor (Homo sapiens, UniProt Q9Y5N1); experiment: as §1, with “HRH3” for “ADRA1B”
[5] = target: Beta-3 adrenergic receptor (Homo sapiens, UniProt P13945); experiment: as §1, with “ADRB3” for “ADRA1B”
D(3) dopamine receptor = D(3) dopamine receptor (Homo sapiens, UniProt P35462); experiment: as §1, with “DRD3” for “ADRA1B”
[6] = target: Sigma non-opioid intracellular receptor 1 (Homo sapiens, UniProt Q99720); experiment: as §1, with “SIGMAR1” for “ADRA1B”
D(1B) dopamine receptor = D(1B) dopamine receptor (Homo sapiens, UniProt P21918); experiment: as §1, with “DRD5” for “ADRA1B”
[7] = target: T4, Alpha-2A adrenergic receptor (Homo sapiens, UniProt P08913); experiment: as §1, with “ADRA2A” for “ADRA1B”
T4 sequence (P08913 whole entry): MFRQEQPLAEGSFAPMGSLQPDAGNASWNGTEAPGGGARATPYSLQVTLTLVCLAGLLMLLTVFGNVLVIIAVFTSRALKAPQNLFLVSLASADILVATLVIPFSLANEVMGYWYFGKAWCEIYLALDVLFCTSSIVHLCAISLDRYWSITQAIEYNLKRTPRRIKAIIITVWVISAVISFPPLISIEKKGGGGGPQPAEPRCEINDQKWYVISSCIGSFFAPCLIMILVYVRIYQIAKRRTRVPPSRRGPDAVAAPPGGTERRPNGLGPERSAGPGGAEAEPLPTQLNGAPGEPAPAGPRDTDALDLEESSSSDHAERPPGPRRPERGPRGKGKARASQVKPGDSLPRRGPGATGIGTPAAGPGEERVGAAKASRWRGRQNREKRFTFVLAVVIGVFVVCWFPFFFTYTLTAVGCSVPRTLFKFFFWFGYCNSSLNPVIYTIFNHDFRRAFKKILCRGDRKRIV

[8] = target: 5-hydroxytryptamine receptor 2A (Homo sapiens, UniProt P28223); experiment: as §1, with “HTR2A” for “ADRA1B”
[9] = target: Sodium-dependent noradrenaline transporter (Homo sapiens, UniProt P23975); experiment: as §1, with “SLC6A2” for “ADRA1B”
Translocator protein = Translocator protein (Homo sapiens, UniProt P30536); experiment: as §1, with “TSPO” for “ADRA1B”
[10] = target: 5-hydroxytryptamine receptor 7 (Homo sapiens, UniProt P34969); experiment: as §1, with “HTR7” for “ADRA1B”
[11] = target: 5-hydroxytryptamine receptor 5A (Homo sapiens, UniProt P47898); experiment: as §1, with “HTR5A” for “ADRA1B”
[12] = target: T5, Alpha-1D adrenergic receptor (Homo sapiens, UniProt P25100); experiment: as §1, with “ADRA1D” for “ADRA1B”
T5 sequence (P25100 whole entry): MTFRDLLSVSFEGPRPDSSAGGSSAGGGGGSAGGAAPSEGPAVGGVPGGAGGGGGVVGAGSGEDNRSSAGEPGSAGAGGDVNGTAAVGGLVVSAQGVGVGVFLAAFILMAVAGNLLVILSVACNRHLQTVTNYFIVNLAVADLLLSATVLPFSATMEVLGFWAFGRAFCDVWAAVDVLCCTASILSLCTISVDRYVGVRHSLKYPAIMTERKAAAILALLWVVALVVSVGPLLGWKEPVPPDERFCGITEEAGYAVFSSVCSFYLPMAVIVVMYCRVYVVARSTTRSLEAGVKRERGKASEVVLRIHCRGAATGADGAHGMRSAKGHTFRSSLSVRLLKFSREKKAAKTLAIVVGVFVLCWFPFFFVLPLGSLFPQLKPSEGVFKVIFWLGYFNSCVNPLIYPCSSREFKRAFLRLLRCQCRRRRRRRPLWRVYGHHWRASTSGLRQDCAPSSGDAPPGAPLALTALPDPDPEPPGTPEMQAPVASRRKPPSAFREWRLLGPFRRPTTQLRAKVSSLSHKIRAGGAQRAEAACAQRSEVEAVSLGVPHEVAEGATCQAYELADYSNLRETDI

[13] = target: T6, Alpha-2C adrenergic receptor (Homo sapiens, UniProt P18825); experiment: as §1, with “ADRA2C” for “ADRA1B”
T6 sequence (P18825 whole entry): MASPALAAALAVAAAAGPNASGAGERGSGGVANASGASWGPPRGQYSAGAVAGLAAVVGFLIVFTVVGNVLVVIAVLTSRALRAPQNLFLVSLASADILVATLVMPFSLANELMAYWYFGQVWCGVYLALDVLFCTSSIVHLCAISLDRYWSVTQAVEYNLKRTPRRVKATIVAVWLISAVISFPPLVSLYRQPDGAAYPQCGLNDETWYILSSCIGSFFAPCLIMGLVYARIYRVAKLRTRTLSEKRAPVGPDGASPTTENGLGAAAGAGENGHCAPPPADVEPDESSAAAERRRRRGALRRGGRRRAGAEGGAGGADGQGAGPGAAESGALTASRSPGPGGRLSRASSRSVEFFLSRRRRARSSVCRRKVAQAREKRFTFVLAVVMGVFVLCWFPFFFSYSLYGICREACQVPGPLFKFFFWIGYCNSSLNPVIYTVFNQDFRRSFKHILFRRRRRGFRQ

[14] = target: 5-hydroxytryptamine receptor 1D (Homo sapiens, UniProt P28221); experiment: as §1, with “HTR1D” for “ADRA1B”
[15] = target: Kappa-type opioid receptor (Homo sapiens, UniProt P41145); experiment: as §1, with “OPRK1” for “ADRA1B”
[16] = target: T7, Muscarinic acetylcholine receptor M5 (Homo sapiens, UniProt P08912); experiment: as §1, with “CHRM5” for “ADRA1B”
T7 sequence (P08912 whole entry): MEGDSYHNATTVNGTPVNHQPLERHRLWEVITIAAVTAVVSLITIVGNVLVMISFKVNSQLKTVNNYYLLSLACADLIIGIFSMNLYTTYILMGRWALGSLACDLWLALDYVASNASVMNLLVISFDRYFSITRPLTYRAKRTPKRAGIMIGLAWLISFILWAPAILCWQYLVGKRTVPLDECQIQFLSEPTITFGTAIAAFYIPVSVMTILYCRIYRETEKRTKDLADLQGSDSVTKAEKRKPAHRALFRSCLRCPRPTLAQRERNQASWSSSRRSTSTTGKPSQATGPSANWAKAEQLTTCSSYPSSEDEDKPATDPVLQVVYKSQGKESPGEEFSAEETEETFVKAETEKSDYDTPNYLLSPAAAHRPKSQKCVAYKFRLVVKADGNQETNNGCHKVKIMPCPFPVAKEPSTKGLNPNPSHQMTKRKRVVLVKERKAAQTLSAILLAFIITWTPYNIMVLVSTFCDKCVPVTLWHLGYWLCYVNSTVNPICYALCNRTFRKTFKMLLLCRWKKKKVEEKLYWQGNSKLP

Chain of Sigma intracellular receptor 2 (Q5BJF2 whole entry): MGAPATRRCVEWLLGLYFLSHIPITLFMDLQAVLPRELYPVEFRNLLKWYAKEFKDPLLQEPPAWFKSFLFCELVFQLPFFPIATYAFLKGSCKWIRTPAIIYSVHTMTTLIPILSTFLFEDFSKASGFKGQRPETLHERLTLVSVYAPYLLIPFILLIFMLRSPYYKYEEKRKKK
Chain of 5-hydroxytryptamine receptor 1E (P28566 whole entry): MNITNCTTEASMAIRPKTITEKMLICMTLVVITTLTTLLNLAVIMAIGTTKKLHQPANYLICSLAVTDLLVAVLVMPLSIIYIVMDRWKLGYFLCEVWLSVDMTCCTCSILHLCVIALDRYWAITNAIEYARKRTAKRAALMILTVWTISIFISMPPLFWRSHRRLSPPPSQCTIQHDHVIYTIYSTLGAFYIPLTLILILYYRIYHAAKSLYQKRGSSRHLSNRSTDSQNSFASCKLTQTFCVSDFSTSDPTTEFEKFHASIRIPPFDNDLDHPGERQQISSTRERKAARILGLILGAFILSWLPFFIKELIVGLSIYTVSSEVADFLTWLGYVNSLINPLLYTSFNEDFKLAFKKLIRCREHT
Chain of D(1B) dopamine receptor (P21918 whole entry): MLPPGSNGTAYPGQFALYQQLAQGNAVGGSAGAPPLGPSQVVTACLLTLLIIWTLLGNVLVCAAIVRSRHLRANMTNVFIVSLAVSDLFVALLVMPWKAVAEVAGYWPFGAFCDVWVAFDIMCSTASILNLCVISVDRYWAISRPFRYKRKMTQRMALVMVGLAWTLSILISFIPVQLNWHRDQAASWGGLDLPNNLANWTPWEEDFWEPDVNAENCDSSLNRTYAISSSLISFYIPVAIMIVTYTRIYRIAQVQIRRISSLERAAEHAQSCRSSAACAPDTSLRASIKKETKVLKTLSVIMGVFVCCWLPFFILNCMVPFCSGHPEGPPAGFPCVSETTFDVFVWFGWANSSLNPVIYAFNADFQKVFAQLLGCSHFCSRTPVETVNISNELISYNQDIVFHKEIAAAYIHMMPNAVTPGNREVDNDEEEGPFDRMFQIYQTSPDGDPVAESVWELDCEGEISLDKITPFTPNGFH
Chain of Sigma non-opioid intracellular receptor 1 (Q99720 whole entry): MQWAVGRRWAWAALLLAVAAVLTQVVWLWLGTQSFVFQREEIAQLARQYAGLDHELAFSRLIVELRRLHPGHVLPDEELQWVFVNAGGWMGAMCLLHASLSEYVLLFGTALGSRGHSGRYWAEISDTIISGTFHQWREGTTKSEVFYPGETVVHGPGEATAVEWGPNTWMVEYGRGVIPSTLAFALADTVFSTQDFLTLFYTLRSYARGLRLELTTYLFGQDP
Chain of 5-hydroxytryptamine receptor 7 (P34969 whole entry): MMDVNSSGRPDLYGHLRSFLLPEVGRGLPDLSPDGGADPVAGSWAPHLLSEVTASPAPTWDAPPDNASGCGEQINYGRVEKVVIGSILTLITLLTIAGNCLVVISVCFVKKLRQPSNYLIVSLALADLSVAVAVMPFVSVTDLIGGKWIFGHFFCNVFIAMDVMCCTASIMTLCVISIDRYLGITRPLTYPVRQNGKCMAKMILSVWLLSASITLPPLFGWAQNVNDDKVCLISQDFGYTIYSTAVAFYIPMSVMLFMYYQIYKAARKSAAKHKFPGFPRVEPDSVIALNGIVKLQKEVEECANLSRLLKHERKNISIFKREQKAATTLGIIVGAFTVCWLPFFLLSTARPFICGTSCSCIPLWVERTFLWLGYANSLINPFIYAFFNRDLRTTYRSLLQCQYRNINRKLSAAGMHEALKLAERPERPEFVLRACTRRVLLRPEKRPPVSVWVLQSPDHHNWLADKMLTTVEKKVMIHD
Chain of 5-hydroxytryptamine receptor 1D (P28221 whole entry): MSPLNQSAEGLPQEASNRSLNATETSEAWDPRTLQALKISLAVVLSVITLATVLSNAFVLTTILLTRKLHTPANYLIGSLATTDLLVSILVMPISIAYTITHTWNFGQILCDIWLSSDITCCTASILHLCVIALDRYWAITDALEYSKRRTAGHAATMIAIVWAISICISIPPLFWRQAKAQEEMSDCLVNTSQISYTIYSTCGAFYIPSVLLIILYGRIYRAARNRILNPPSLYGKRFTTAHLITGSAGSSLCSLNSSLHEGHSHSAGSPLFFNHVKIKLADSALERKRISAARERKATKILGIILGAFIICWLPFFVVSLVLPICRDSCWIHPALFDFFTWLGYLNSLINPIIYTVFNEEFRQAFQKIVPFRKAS
Chain of Mu-type opioid receptor (P35372 whole entry): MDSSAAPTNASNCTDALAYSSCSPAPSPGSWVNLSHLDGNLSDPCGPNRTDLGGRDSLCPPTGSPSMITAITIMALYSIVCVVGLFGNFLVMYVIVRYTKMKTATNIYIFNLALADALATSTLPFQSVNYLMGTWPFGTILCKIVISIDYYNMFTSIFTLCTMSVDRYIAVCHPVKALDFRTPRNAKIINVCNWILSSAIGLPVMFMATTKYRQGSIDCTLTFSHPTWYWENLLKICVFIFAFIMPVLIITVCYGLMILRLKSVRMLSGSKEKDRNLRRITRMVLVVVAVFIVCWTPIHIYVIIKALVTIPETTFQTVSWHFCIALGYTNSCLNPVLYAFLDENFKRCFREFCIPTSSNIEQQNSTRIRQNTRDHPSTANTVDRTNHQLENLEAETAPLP
Chain of 5-hydroxytryptamine receptor 2A (P28223 whole entry): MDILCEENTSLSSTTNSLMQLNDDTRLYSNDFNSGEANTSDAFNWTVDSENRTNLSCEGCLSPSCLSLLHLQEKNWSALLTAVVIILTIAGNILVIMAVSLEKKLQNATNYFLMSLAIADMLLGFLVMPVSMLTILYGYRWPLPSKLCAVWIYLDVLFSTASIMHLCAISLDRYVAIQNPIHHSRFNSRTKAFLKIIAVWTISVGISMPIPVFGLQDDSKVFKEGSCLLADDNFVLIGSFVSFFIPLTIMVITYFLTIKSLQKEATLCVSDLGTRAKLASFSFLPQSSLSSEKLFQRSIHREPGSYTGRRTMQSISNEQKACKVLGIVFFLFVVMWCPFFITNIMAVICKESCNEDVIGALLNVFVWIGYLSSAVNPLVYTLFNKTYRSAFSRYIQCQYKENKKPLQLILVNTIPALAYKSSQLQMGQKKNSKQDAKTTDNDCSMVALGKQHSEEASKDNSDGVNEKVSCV
Chain of D(2) dopamine receptor (P14416 whole entry): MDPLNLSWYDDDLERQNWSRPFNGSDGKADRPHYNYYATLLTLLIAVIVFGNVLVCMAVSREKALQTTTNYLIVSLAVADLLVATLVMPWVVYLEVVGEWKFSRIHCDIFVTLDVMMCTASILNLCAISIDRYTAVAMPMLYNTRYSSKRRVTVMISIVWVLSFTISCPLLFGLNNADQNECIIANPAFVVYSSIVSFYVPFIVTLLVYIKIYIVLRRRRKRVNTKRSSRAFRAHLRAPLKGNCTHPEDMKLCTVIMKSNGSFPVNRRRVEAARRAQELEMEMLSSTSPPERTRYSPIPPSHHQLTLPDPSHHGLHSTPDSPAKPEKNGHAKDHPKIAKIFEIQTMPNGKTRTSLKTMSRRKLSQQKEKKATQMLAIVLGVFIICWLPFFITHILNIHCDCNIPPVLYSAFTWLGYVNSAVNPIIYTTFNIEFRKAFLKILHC
Chain of Kappa-type opioid receptor (P41145 whole entry): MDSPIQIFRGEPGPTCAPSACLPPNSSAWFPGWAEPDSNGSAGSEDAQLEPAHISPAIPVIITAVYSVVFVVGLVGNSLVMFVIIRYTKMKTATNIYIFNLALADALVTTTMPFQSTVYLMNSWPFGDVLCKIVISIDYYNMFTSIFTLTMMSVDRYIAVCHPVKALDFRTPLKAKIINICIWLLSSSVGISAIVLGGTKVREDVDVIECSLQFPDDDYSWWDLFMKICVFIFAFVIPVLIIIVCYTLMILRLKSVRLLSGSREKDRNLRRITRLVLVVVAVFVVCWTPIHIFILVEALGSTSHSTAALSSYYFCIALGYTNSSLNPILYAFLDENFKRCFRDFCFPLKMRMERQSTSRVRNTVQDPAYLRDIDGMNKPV
Chain of D(3) dopamine receptor (P35462 whole entry): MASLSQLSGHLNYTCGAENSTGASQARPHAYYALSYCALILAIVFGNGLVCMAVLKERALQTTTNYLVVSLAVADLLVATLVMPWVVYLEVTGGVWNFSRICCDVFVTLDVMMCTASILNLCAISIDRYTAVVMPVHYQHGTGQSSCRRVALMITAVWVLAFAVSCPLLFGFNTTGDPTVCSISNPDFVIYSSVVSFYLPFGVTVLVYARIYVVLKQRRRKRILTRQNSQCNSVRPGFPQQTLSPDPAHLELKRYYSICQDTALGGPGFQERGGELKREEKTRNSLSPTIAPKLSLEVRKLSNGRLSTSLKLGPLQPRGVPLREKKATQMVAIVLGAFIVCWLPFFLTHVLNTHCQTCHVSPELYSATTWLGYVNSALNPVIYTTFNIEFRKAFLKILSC
Chain of Beta-3 adrenergic receptor (P13945 whole entry): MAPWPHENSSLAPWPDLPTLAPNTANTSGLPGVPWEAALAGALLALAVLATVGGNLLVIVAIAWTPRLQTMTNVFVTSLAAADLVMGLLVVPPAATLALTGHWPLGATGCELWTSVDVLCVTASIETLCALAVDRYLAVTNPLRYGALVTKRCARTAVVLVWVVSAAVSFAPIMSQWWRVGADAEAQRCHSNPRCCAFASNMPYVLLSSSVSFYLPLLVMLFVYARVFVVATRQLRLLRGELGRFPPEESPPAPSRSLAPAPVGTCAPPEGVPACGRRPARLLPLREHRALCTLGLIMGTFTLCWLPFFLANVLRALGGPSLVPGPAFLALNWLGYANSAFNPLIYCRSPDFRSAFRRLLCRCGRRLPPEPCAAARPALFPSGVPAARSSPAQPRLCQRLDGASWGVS
Chain of Translocator protein (P30536 whole entry): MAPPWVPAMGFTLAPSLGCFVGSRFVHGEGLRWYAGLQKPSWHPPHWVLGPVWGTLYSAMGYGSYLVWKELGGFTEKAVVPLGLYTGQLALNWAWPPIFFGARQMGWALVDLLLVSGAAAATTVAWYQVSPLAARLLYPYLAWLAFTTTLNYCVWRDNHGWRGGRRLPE

Compound | Ki (Mu-type opioid receptor) [µM] | Ki [2] [µM] | Ki [3] [µM] | Ki [6] [µM] | Ki (D(1B) dopamine receptor) [µM] | Ki [10] [µM] | Ki [14] [µM] | further results
CN[C@@H]1CCc2[nH]c3ccc(C(N)=O)cc3c2C1 [FROVATRIPTAN SUCCINATE] | 0.187 | 3.26 | 0.311 |  |  |  |  | Ki [1]: > 10 µM; Ki (D(4) dopamine receptor): 0.909 µM; Ki [4]: 1.47 µM; Ki (D(2) dopamine receptor): 0.694 µM
c1nc(CC2CCNCC2)c[nH]1 |  |  |  |  |  |  |  | Ki (Histamine H3 receptor): 0.00063 µM
Cc1cc(C)cc(-c2cnc3cc(Cl)c(-c4cccc(O)c4)cc3c2OCCCN)c1 | 5.57 | 5.21 | 5.71 | > 10 | 0.993 | 2.18 | 0.292 | Ki [5]: 2.78 µM; Ki (D(3) dopamine receptor): 0.416 µM; Ki [7]: 0.852 µM; Ki [8]: 3.43 µM; Ki [9]: 5.81 µM; Ki (Translocator protein): 0.522 µM; Ki [11]: 0.847 µM; Ki [12]: 1.68 µM; Ki [13]: 0.846 µM
CN1CCC(C(=O)c2cccc(NC(=O)c3c(F)cc(F)cc3F)n2)CC1 |  | 0.184 | 0.127 | 3.13 | 0.253 | 5.41 | 0.869 | Ki [15]: 0.357 µM; Ki [16]: 0.632 µM
